In patent US20210221848A1, “POLYMYXIN DERIVATIVES AND THEIR USE IN COMBINATION THERAPY TOGETHER WITH DIFFERENT ANTIBIOTICS” (priority 2014, published 2021):
Where two headings read alike, the source gives them in different places.

Columns and labels:
[1] = test system: E. coli strains with elevated MICs to Polymyxin B; experiment: MIC against strains with elevated MICs to Polymyxin B; assay type: cell-based, Escherichia coli; settings: Table 6D; for MIC E. coli 058: strain 058, elevated MIC to Polymyxin B; for MIC E. coli 059: strain 059, elevated MIC to Polymyxin B; for MIC E. coli 060: strain 060, elevated MIC to Polymyxin B; for MIC E. coli 061: strain 061, elevated MIC to Polymyxin B
Procedure, shortened: (§1)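 Direct colony suspension at 0.5 McFarland (from 18-24 h Mueller-Hinton agar) served as inoculum; duplicates, lower value kept if within 2-fold.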

[2] = test system: K. pneumoniae strains with elevated MICs to Polymyxin B; experiment: as above; assay type: cell-based, Klebsiella pneumoniae; settings: Table 6D; for MIC K. pneumoniae 063: strain 063, elevated MIC to Polymyxin B; for MIC K. pneumoniae 064: strain 064, elevated MIC to Polymyxin B; for MIC K. pneumoniae 655: strain 655, elevated MIC to Polymyxin B; for MIC K. pneumoniae 062: strain 062, elevated MIC to Polymyxin B
Procedure, shortened: as §1

[3] = test system: P. aeruginosa strains with elevated MICs to Polymyxin B; experiment: as above; assay type: cell-based, Pseudomonas aeruginosa; settings: Table 6D; for MIC P. aeruginosa 065: strain 065, elevated MIC to Polymyxin B; for MIC P. aeruginosa 066: strain 066, elevated MIC to Polymyxin B; for MIC P. aeruginosa 067: strain 067, elevated MIC to Polymyxin B
Procedure, shortened: as §1

[4] = test system: A. baumanii strains with elevated MICs to Polymyxin B; experiment: as above; assay type: cell-based, Acinetobacter baumannii; settings: Table 6D; for MIC A. baumannii 053: strain 053, elevated MIC to Polymyxin B; for MIC A. baumannii 056: strain 056, elevated MIC to Polymyxin B; for MIC A. baumannii 068: strain 068, elevated MIC to Polymyxin B; for MIC A. baumannii 070: strain 070, elevated MIC to Polymyxin B
Procedure, shortened: as §1

[5] = test system: E. coli
[6] = test system: K. pneumoniae
[7] = test system: P. aeruginosa
[8] = test system: A. baumannii
[9] = absence of a second agent, Table 6B

## (trans-5- (cyclohexyl- piperidine)-3- carbonyl L-Thr-L- Dap-polymyxin B heptapeptide [Example D78]
[1]
  MIC E. coli 058: 0.5 micrograms/mL
  MIC E. coli 059: 0.5 micrograms/mL
  MIC E. coli 060: 1 micrograms/mL
  MIC E. coli 061: 1 micrograms/mL
[2]
  MIC K. pneumoniae 063: 4 micrograms/mL
  MIC K. pneumoniae 064: 1 micrograms/mL
  MIC K. pneumoniae 655: 4 micrograms/mL
[3]
  MIC P. aeruginosa 065: 1 micrograms/mL
  MIC P. aeruginosa 066: 0.5 micrograms/mL
  MIC P. aeruginosa 067: 32 micrograms/mL
[4]
  MIC A. baumannii 053: 8 micrograms/mL
  MIC A. baumannii 056: 50.25 micrograms/mL
  MIC A. baumannii 068: 1 micrograms/mL
  MIC A. baumannii 070: 1 micrograms/mL
[5]; sole activity, Table 6C
  MIC, E. coli ATCC 25922: 0.125 micrograms/mL
  MIC, E. coli NCTC 13441: 0.125 micrograms/mL
[6]; sole activity, Table 6C
  MIC, K. pneumoniae ATCC 4352: 0.06 micrograms/mL
  MIC, K. pneumoniae ATCC BAA-2146: 0.125 micrograms/mL
[7]; sole activity, Table 6C
  MIC, P. aeruginosa ATCC 27853: 0.5 micrograms/mL
  MIC, P. aeruginosa CCUG 59347: 0.5 micrograms/mL
[8]; sole activity, Table 6C
  MIC, A. baumannii ATCC BAA-747: 0.06 micrograms/mL
  MIC, A. baumannii NCTC 13424: 0.06 micrograms/mL

## (trans-5-(isobutyl- piperidine)-3- carbonyl L-Ser- L-Dap-polymyxin B heptapeptide [Example D79]
[1]
  MIC E. coli 058: 8 micrograms/mL
  MIC E. coli 059: 8 micrograms/mL
  MIC E. coli 060: 4 micrograms/mL
  MIC E. coli 061: 8 micrograms/mL
[2]
  MIC K. pneumoniae 062: 64 micrograms/mL
  MIC K. pneumoniae 063: >128 micrograms/mL
  MIC K. pneumoniae 064: 8 micrograms/mL
  MIC K. pneumoniae 655: 128 micrograms/mL
[3]
  MIC P. aeruginosa 065: 16 micrograms/mL
  MIC P. aeruginosa 066: 8 micrograms/mL
  MIC P. aeruginosa 067: >128 micrograms/mL
[4]
  MIC A. baumannii 053: 128 micrograms/mL
  MIC A. baumannii 056: 32 micrograms/mL
  MIC A. baumannii 068: 8 micrograms/mL
  MIC A. baumannii 070: 16 micrograms/mL
[5]; sole activity, Table 6C
  MIC, E. coli ATCC 25922: 0.125 micrograms/mL
  MIC, E. coli NCTC 13441: 0.125 micrograms/mL
[6]; sole activity, Table 6C
  MIC, K. pneumoniae ATCC 4352: 0.06 micrograms/mL
  MIC, K. pneumoniae ATCC BAA-2146: 0.125 micrograms/mL
[7]; sole activity, Table 6C
  MIC, P. aeruginosa ATCC 27853: 0.25 micrograms/mL
  MIC, P. aeruginosa CCUG 59347: 0.25 micrograms/mL
[8]; sole activity, Table 6C
  MIC, A. baumannii ATCC BAA-747: 0.06 micrograms/mL
  MIC, A. baumannii NCTC 13424: 0.125 micrograms/mL

## (trans-5-(isobutyl- piperidine)-3- carbonyl L-Thr- D-Ser-polymyxin B heptapeptide [Example D82]
[1]
  MIC E. coli 058: 4 micrograms/mL
  MIC E. coli 059: 4 micrograms/mL
  MIC E. coli 060: 4 micrograms/mL
  MIC E. coli 061: 8 micrograms/mL
[2]
  MIC K. pneumoniae 062: 32 micrograms/mL
  MIC K. pneumoniae 063: 16 micrograms/mL
  MIC K. pneumoniae 064: 1 micrograms/mL
  MIC K. pneumoniae 655: 8 micrograms/mL
[3]
  MIC P. aeruginosa 065: 0.5 micrograms/mL
  MIC P. aeruginosa 067: 64 micrograms/mL
[4]
  MIC A. baumannii 053: 16 micrograms/mL
  MIC A. baumannii 056: 8 micrograms/mL
  MIC A. baumannii 068: 32 micrograms/mL
  MIC A. baumannii 070: 32 micrograms/mL
[5]; sole activity, Table 6C
  MIC, E. coli ATCC 25922: 0.125 micrograms/mL
[6]; sole activity, Table 6C
  MIC, K. pneumoniae ATCC 4352: 0.06 micrograms/mL
[7]; sole activity, Table 6C
  MIC, P. aeruginosa ATCC 27853: 2 micrograms/mL
  MIC, P. aeruginosa CCUG 59347: 4 micrograms/mL
[8]; sole activity, Table 6C
  MIC, A. baumannii ATCC BAA-747: 0.06 micrograms/mL
  MIC, A. baumannii NCTC 13424: 0.125 micrograms/mL

## 3-aminomethyl- undecanoyl L- Thr-L-Dap- polymyxin B heptapeptide [Example D92]
[1]
  MIC E. coli 058: 0.5 micrograms/mL
  MIC E. coli 059: 0.5 micrograms/mL
  MIC E. coli 060: 1 micrograms/mL
  MIC E. coli 061: 4 micrograms/mL
[2]
  MIC K. pneumoniae 062: 2 micrograms/mL
  MIC K. pneumoniae 063: 8 micrograms/mL
  MIC K. pneumoniae 064: 2 micrograms/mL
  MIC K. pneumoniae 655: 4 micrograms/mL
[3]
  MIC P. aeruginosa 065: 0.5 micrograms/mL
  MIC P. aeruginosa 066: 1 micrograms/mL
  MIC P. aeruginosa 067: 8 micrograms/mL
[4]
  MIC A. baumannii 053: 8 micrograms/mL
  MIC A. baumannii 056: 4 micrograms/mL
  MIC A. baumannii 068: 1 micrograms/mL
  MIC A. baumannii 070: 1 micrograms/mL
[5]; sole activity, Table 6C
  MIC, E. coli ATCC 25922: 0.5 micrograms/mL
[6]; sole activity, Table 6C
  MIC, K. pneumoniae ATCC 4352: 0.25 micrograms/mL
[7]; sole activity, Table 6C
  MIC, P. aeruginosa ATCC 27853: 0.25 micrograms/mL
  MIC, P. aeruginosa CCUG 59347: 0.5 micrograms/mL
[8]; sole activity, Table 6C
  MIC, A. baumannii ATCC BAA-747: 0.5 micrograms/mL
  MIC, A. baumannii NCTC 13424: 0.25 micrograms/mL

## cis-5- (isobutylcarbamoyl) piperidine-3- carbonyl L-Thr-L- Dap-polymyxin B heptapeptide [Example D81]
[1]
  MIC E. coli 058: 8 micrograms/mL
  MIC E. coli 059: 16 micrograms/mL
  MIC E. coli 060: 8 micrograms/mL
  MIC E. coli 061: 32 micrograms/mL
[2]
  MIC K. pneumoniae 063: 64 micrograms/mL
  MIC K. pneumoniae 064: 16 micrograms/mL
  MIC K. pneumoniae 655: 64 micrograms/mL
[3]
  MIC P. aeruginosa 065: 2 micrograms/mL
  MIC P. aeruginosa 066: 16 micrograms/mL
  MIC P. aeruginosa 067: >128 micrograms/mL
[4]
  MIC A. baumannii 053: 128 micrograms/mL
  MIC A. baumannii 056: 32 micrograms/mL
  MIC A. baumannii 068: 32 micrograms/mL
  MIC A. baumannii 070: 32 micrograms/mL
[5]; sole activity, Table 6C
  MIC, E. coli ATCC 25922: 0.06 micrograms/mL
[6]; sole activity, Table 6C
  MIC, K. pneumoniae ATCC 4352: 0.06 micrograms/mL
  MIC, K. pneumoniae ATCC BAA-2146: 0.06 micrograms/mL
[7]; sole activity, Table 6C
  MIC, P. aeruginosa ATCC 27853: 0.25 micrograms/mL
  MIC, P. aeruginosa CCUG 59347: 0.5 micrograms/mL
[8]; sole activity, Table 6C
  MIC, A. baumannii ATCC BAA-747: 0.03 micrograms/mL
  MIC, A. baumannii NCTC 13424: 0.06 micrograms/mL

## (trans-5- octylpiperidine)-3- carbonyl polymyxin B nonapeptide [Example D22]
[1]
  MIC E. coli 059: 8 micrograms/mL
  MIC E. coli 060: 16 micrograms/mL
  MIC E. coli 061: 64 micrograms/mL
[2]
  MIC K. pneumoniae 062: >64 micrograms/mL
  MIC K. pneumoniae 063: >64 micrograms/mL
  MIC K. pneumoniae 064: >64 micrograms/mL
  MIC K. pneumoniae 655: >256 micrograms/mL
[3]
  MIC P. aeruginosa 066: >64 micrograms/mL
  MIC P. aeruginosa 067: >64 micrograms/mL
[4]
  MIC A. baumannii 053: >64 micrograms/mL
  MIC A. baumannii 056: >64 micrograms/mL
  MIC A. baumannii 068: 4 micrograms/mL
  MIC A. baumannii 070: 4 micrograms/mL
[5]; [9]
  MIC, E. coli ATCC 25922: 4 micrograms/mL
  MIC, E. coli NCTC 13441: 4 micrograms/mL
[6]; [9]
  MIC, K. pneumoniae ATCC BAA-2146: >8 micrograms/mL
[7]; [9]
  MIC, P. aeruginosa ATCC 27853: 2 micrograms/mL
  MIC, P. aeruginosa CCUG 59347: 1 micrograms/mL
[8]; [9]
  MIC, A. baumannii ATCC BAA-747: >8 micrograms/mL
  MIC, A. baumannii NCTC 13424: >8 micrograms/mL

## trans-4- octylpyrrolidine- 3-carbonyl L-Thr- L-Dap-polymyxin B heptapeptide [Example D89]
[1]
  MIC E. coli 058: 1 micrograms/mL
  MIC E. coli 059: 1 micrograms/mL
  MIC E. coli 060: 0.5 micrograms/mL
  MIC E. coli 061: 2 micrograms/mL
[2]
  MIC K. pneumoniae 062: 8 micrograms/mL
  MIC K. pneumoniae 063: 4 micrograms/mL
  MIC K. pneumoniae 064: 1 micrograms/mL
  MIC K. pneumoniae 655: 8 micrograms/mL
[3]
  MIC P. aeruginosa 065: 0.5 micrograms/mL
  MIC P. aeruginosa 066: 1 micrograms/mL
  MIC P. aeruginosa 067: 16 micrograms/mL
[4]
  MIC A. baumannii 053: 8 micrograms/mL
  MIC A. baumannii 056: 4 micrograms/mL
  MIC A. baumannii 068: 0.5 micrograms/mL
  MIC A. baumannii 070: 0.5 micrograms/mL
[5]; sole activity, Table 6C
  MIC, E. coli ATCC 25922: 0.5 micrograms/mL
  MIC, E. coli NCTC 13441: 0.125 micrograms/mL
[6]; sole activity, Table 6C
  MIC, K. pneumoniae ATCC BAA-2146: 0.5 micrograms/mL
[7]; sole activity, Table 6C
  MIC, P. aeruginosa ATCC 27853: 0.5 micrograms/mL
  MIC, P. aeruginosa CCUG 59347: 1 micrograms/mL
[8]; sole activity, Table 6C
  MIC, A. baumannii ATCC BAA-747: 0.5 micrograms/mL
  MIC, A. baumannii NCTC 13424: 0.5 micrograms/mL
